{"source": "patent US8017350B2", "about": "“Glimepiride- and insulin-induced glycosylphosphatidylinositol-specific phospholipase C regulation” (Sanofi-Aventis Deutschland GmbH, priority 2004, dated 2011)", "key": {"[1]": {"system": "GPI-PLC, intact rat adipocytes", "test": "GPI-PLC activity in intact rat adipocytes (amphiphilic-to-hydrophilic conversion of endogenous 5'-Nuc, Gce1, aP)", "format": "cell-based", "experimental": "Adipocytes isolated by digestion from epididymal fat pads of male rats (120-140 g, fed ad libitum, see Ref. 53 [Muller et al.; Mol. Cell. Biol. 21:[…] (2001)]) were washed twice in KRH (20 mM Hepes/KOH, pH 7.4, 1.2 mM KH2PO4, 140 mM NaCl, 4.7 mM KCl, 2.5 mM CaCl2, 1.2 mM MgSO4) containing 1% (w/v) BSA and then incubated in the same medium supplemented with 100 μg/ml gentamycin, 100 nM 1-methyl-2-phenylethyladenosine, 0.5 U/ml adenosine deaminase, 1 mM sodium pyruvate and 5 mM D-glucose in the absence or presence of GPI-2350 (prepared as 10 mM stock solution in DMSO, the final DMSO concentration in the in vitro and adipocyte incubations was kept constant at 0.5% at any inhibitor concentration), insulin or glimepiride (prepared as described in “Müller et al. (1994) J. Cell. Biol. 126:1267-1276”) at 37° C. in a shaking water bath at constant bubbling with 5% CO2/95% O2 at a final titer of 100 μl of packed cell volume per ml incubation volume (determined by aspiration of small aliquots into capillary hematocrit tubes and centrifugation for 60 s [seconds] in a microhematocrit centrifuge in order to determine the fractional occupation of the suspension by the adipocytes; 10% cytocrit corresponds to about 1.5×10^6 cells/ml) for the periods indicated. […]"}, "[2]": {"system": "pp59Lyn and Gce1 interaction with caveolin-1 in rat adipocytes", "test": "dissociation of signaling proteins from caveolin (caveolin-1 immunoprecipitates of hcDIGs)", "format": "cell-based", "conditions": "50 μM", "experimental": "Solubilized DIGs (see above, 5-20 μg protein) were precleared by incubation with protein A/G-Sepharose and subsequent centrifugation (10,000×g, 5 min). The supernatant was incubated with anti-caveolin-1 antibodies (1:1000) preadsorbed on protein A/G-Sepharose in 1 ml of 10 mM Tris/HCl (pH 7.4), 150 mM NaCl, 1% TX-100 for 1 h at 4° C. The immune complexes were washed twice with the same buffer and then twice with buffer lacking TX-100 and finally subjected to SDS-PAGE performed in the absence of β-mercaptoethanol. The recovery of immunoprecipitated caveolin was normalized by homologous immunoblotting with anti-caveolin antibodies of the same blot following stripping of the membrane.\nPolypeptides separated by SDS-PAGE were transferred to polyvinylidene difluoride membranes using the semidry procedure as described in “Müller, G. et al., (2001) Mol. Cell. Biol. 21: 4553-4567”. Washed membranes were incubated with anti-caveolin-1 (1:2000), anti-pp59^Lyn (1:1250), anti-aP (1:500), anti-5′-Nuc (1:750) and anti-IRS-1 (1:2000) antibodies for 4 h at 15° C. Washed membranes were incubated with horseradish peroxidase-coupled secondary goat anti-mouse (1:2000) or goat anti-rabbit IgG (1:4000) antibodies. Labeled proteins were visualized by enhanced chemiluminescence.\nFIG. 6: Effect of GPI-2350 on the glimepiride/insulin-induced dissociation of signaling proteins from caveolin. Isolated rat adipocytes were treated (5 min, 37° C.) without or with GPI-2350 (left panels, 50 μM; right panels, increasing conc.) and then incubated (120 min, 37° C.) in the absence or presence of insulin (10 nM) or glimepiride (20 μM). hcDIGs were prepared from the adipocytes and then solubilized. Caveolin-1 immunoprecipitates prepared from the solubilized hcDIGs were assayed for the presence of pp59^Lyn and Gce1 by immunoblotting and photoaffinity-labeling, respectively. […]"}}, "note": "“Also recorded” adds a separate entry of the source."}
{"smiles": "CCCCCCCCCCCCP1(=O)O[C@@H]2[C@H](O)[C@@H](O)[C@H](O)[C@@H](O)[C@@H]2O1", "note": "(stereo partly drawn) [GPI-2350, myo-inositol-1,2-cyclo-dodecylphosphonic acid]", "values": [{"measurement": "IC50", "setting": "[1]; FIG. 8, read-out: concentration of half-maximal inhibition of the GPI-PLC", "value": 5, "unit": "µM"}, {"measurement": "reduction of basal and glimepiride-/insulin-stimulated GPI-PLC activity", "setting": "[1]; intact adipocytes, concentration-dependent", "value": "to lower than basal and similar levels"}, {"measurement": "effect on insulin-/glimepiride-induced dissociation of pp59Lyn and Gce1 from caveolin", "setting": "[2]", "value": "completely abrogated; also recorded: almost complete blockade"}]}
